{"source": "paper PMC4319692", "about": "(Molecular Pharmaceutics, 2014)", "test": "Metabolic stability in human liver microsomes", "assay_type": "in vitro ADME", "conditions": "10 μM, pooled human liver microsomes 1 mg/mL with cofactors, 2 h", "data": [{"smiles": "C[C@]12CC[C@H]3[C@@H](CCC4=CC(=O)CC[C@@]43C)[C@@H]1CC[C@@H]2O", "note": "[testosterone]", "values": [{"measurement": "decrease (disappearance) of parent compound", "result": "more than 95%"}]}]}
